Test results: patent US20090099103A1, “COMBINATIONS OF THERAPEUTIC AGENTS FOR TREATING CANCER” (NOVARTIS AG., priority 2006, published 2009)

Test system: A549 cells
Assay: Combination dose-matrix cell viability assay (CellTiter-Blue / alamar blue), A549
Type: cell-based
Conditions: in the presence of increasing concentrations of cladribine
Excerpt: The inhibition ranges from 0% at the untreated level to 100% when T=0.
This effectively calculates a volume between the measured and Loewe additive response surfaces, weighted towards high inhibition and corrected for varying dilution factors.

CCN1CCN(Cc2ccc(-c3cc4c(N[C@H](C)c5ccccc5)ncnc4[nH]3)cc2)CC1 [{6-[4-(4-ethyl-piperazin-1-ylmethyl)-phenyl]-7H-pyrrolo[2,3-d]pyrimidin-4-yl]-((R)-1-phenyl-ethyl)-amine]
change in potency of the Erb-B/VEGF inhibitor: significant increase in the potency
